Earlier results, collected in patent US5965160A, “Self-emulsifiable formulation producing an oil-in-water emulsion” (priority 1998, dated 1999).

Settings: sealed entero-coated hard gelatine capsule; Barnwell et al, 1992

In the case of `CC(C)NCC(O)COc1cccc2ccccc12` (stereo not shown) [propranolol], the “oral bioavailability (in words)” value is listed as “can be improved by dissolving the drug in a lipid formulation containing mainly oleic acid”.
